According to BindingDB's records for patent US12503453 (Dana-Farber Cancer Institute, 2025):

Target: Ubiquitin carboxyl-terminal hydrolase 7 (Homo sapiens, UniProt Q93009)
Assay: Ub-AMC Enzymatic and Kinetic Assays
Method: Full length USP7 was tested for its activity in Ubiquitin-AMC assay in presence or absence of inhibitors. USP7 (5 nM) was pre-incubated for 6 hours at room temperature with different concentrations of inhibitors or DMSO as a control in 50 mM HEPES pH 7.5, 0.5 mM EDTA, 11 μM ovalbumin, and 5 mM DTT. Ubiquitin-AMC (Boston Biochem) was then added to a final concentration of 500 nM. The initial rate of the reaction was measured by collecting fluorescence data at one minute intervals over 30-minute period using a Clariostar fluorescence plate reader at excitation and emission wavelength of 345 and 445 nm respectively. The calculated initial rate values were plotted against inhibitor concentrations to determine IC50s. All the experimental data were plotted using Prism GraphPad. All assays for each compound were performed at least twice for each compound.

Ubiquitin carboxyl-terminal hydrolase 7, sequence (Q93009 whole entry): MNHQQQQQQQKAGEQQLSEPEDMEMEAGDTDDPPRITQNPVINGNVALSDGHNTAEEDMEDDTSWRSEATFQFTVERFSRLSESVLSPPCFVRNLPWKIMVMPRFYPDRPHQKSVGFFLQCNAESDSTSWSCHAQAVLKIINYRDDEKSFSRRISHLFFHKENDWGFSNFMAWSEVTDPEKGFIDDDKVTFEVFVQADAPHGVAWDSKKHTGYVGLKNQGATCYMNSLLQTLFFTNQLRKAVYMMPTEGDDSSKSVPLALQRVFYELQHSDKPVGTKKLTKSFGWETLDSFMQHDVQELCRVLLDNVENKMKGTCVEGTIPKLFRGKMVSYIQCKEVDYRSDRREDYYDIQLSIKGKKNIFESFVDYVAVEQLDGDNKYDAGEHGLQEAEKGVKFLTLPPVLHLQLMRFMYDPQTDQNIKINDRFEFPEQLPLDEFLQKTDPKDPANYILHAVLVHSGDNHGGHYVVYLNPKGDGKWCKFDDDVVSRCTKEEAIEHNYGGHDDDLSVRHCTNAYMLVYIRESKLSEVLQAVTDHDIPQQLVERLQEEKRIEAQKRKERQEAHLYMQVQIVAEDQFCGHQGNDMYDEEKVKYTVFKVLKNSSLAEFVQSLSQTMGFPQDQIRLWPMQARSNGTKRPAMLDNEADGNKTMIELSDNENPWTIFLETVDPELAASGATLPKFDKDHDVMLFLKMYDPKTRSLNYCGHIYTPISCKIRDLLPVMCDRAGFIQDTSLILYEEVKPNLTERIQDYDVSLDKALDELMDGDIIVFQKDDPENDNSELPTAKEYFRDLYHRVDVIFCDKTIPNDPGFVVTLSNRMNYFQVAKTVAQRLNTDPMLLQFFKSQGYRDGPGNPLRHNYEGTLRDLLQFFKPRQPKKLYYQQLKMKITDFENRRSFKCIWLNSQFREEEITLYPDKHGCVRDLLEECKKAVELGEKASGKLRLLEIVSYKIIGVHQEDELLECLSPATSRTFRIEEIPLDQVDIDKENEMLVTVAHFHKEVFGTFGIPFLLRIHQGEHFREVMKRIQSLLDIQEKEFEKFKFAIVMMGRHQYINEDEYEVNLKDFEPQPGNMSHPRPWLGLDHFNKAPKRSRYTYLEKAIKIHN

IC50: > 1000 nM
SMILES: CN1CCN(CCC(=O)Nc2ccc3c(=O)n(CC4(O)CCN(C(=O)C(CCCNC(=O)C5CCN(C#N)C5)Cc5ccccc5)CC4)cnc3c2)CC1 (stereo unspecified) [US12503453, Compound Table1.19]
